Measured values taken from article PMC6199744, “Development of Chemical Proteomics for the Folateome and Analysis of the Kinetoplastid Folateome” (ACS Infectious Diseases, 2018).
Read-outs that look alike come from different tables or passages of the source.

Key:
Format in all cases: binding
[1] = biological target: T1, HeLa cell extract proteins (Homo sapiens, UniProt P11498)
T1 construct: endogenous in cells; host or cells: HeLa cell extract
T1 sequence (P11498 21-1178): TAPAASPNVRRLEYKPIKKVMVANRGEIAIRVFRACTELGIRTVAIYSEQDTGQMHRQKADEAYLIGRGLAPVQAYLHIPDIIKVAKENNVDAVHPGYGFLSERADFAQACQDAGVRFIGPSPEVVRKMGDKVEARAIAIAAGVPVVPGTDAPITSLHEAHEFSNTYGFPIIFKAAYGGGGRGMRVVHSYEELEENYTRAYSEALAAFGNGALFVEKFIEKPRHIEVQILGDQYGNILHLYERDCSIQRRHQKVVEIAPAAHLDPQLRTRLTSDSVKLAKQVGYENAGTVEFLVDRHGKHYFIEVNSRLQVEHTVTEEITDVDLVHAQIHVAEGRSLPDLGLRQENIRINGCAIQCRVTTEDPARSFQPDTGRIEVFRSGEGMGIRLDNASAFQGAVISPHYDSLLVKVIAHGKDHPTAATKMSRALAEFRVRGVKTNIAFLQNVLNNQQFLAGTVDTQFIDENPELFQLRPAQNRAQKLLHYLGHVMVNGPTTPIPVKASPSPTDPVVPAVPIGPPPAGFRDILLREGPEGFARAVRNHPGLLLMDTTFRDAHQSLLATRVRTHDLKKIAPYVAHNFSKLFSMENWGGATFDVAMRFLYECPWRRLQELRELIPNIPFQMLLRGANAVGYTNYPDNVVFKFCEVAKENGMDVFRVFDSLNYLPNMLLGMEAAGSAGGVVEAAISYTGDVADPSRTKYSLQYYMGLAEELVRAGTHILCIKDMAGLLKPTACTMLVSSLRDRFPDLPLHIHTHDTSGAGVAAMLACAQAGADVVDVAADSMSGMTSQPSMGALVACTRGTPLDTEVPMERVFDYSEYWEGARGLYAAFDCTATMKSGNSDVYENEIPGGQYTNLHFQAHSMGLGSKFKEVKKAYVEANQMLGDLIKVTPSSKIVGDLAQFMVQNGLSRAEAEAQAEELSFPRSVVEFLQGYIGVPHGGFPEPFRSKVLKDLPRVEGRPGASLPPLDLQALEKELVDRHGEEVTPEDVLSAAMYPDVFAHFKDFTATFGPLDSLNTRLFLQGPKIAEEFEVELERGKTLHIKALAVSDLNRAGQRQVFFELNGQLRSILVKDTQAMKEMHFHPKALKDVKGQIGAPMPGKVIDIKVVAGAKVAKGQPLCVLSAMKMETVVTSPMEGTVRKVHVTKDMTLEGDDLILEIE

[2] = biological target: T2, HeLa cell extract proteins (Homo sapiens, UniProt O94855)
T2 construct: endogenous in cells; host or cells: HeLa cell extract
T2 sequence (O94855 1-1032): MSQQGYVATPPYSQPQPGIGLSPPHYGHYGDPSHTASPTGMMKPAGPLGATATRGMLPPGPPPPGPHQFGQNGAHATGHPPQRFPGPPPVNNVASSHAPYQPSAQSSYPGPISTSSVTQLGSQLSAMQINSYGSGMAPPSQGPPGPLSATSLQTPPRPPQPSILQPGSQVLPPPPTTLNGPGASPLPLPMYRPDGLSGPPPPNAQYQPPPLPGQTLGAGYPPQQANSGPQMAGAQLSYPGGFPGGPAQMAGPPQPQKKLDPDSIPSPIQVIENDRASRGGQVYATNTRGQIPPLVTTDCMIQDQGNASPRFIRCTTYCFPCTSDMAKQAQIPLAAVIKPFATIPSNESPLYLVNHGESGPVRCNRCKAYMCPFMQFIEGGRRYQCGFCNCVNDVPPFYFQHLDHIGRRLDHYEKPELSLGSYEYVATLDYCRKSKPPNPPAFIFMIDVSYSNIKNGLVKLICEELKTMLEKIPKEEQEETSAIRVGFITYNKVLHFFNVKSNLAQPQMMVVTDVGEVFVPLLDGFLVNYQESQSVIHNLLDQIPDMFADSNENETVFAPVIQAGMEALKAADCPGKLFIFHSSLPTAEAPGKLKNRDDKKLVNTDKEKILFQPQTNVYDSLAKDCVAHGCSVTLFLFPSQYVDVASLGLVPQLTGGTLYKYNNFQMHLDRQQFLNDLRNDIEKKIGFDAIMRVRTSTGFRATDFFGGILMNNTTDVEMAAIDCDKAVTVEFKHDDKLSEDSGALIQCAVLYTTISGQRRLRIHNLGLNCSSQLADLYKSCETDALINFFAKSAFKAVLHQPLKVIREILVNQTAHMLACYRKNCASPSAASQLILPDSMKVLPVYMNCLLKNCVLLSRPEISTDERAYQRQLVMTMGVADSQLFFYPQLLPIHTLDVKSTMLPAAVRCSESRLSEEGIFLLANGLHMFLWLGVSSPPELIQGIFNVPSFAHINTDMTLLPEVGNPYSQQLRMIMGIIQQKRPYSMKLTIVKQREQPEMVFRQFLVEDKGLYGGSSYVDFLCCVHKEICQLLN

[3] = biological target: T3, HeLa cell extract proteins (Homo sapiens, UniProt Q9Y490)
T3 construct: endogenous in cells; host or cells: HeLa cell extract
T3 sequence (Q9Y490 whole entry): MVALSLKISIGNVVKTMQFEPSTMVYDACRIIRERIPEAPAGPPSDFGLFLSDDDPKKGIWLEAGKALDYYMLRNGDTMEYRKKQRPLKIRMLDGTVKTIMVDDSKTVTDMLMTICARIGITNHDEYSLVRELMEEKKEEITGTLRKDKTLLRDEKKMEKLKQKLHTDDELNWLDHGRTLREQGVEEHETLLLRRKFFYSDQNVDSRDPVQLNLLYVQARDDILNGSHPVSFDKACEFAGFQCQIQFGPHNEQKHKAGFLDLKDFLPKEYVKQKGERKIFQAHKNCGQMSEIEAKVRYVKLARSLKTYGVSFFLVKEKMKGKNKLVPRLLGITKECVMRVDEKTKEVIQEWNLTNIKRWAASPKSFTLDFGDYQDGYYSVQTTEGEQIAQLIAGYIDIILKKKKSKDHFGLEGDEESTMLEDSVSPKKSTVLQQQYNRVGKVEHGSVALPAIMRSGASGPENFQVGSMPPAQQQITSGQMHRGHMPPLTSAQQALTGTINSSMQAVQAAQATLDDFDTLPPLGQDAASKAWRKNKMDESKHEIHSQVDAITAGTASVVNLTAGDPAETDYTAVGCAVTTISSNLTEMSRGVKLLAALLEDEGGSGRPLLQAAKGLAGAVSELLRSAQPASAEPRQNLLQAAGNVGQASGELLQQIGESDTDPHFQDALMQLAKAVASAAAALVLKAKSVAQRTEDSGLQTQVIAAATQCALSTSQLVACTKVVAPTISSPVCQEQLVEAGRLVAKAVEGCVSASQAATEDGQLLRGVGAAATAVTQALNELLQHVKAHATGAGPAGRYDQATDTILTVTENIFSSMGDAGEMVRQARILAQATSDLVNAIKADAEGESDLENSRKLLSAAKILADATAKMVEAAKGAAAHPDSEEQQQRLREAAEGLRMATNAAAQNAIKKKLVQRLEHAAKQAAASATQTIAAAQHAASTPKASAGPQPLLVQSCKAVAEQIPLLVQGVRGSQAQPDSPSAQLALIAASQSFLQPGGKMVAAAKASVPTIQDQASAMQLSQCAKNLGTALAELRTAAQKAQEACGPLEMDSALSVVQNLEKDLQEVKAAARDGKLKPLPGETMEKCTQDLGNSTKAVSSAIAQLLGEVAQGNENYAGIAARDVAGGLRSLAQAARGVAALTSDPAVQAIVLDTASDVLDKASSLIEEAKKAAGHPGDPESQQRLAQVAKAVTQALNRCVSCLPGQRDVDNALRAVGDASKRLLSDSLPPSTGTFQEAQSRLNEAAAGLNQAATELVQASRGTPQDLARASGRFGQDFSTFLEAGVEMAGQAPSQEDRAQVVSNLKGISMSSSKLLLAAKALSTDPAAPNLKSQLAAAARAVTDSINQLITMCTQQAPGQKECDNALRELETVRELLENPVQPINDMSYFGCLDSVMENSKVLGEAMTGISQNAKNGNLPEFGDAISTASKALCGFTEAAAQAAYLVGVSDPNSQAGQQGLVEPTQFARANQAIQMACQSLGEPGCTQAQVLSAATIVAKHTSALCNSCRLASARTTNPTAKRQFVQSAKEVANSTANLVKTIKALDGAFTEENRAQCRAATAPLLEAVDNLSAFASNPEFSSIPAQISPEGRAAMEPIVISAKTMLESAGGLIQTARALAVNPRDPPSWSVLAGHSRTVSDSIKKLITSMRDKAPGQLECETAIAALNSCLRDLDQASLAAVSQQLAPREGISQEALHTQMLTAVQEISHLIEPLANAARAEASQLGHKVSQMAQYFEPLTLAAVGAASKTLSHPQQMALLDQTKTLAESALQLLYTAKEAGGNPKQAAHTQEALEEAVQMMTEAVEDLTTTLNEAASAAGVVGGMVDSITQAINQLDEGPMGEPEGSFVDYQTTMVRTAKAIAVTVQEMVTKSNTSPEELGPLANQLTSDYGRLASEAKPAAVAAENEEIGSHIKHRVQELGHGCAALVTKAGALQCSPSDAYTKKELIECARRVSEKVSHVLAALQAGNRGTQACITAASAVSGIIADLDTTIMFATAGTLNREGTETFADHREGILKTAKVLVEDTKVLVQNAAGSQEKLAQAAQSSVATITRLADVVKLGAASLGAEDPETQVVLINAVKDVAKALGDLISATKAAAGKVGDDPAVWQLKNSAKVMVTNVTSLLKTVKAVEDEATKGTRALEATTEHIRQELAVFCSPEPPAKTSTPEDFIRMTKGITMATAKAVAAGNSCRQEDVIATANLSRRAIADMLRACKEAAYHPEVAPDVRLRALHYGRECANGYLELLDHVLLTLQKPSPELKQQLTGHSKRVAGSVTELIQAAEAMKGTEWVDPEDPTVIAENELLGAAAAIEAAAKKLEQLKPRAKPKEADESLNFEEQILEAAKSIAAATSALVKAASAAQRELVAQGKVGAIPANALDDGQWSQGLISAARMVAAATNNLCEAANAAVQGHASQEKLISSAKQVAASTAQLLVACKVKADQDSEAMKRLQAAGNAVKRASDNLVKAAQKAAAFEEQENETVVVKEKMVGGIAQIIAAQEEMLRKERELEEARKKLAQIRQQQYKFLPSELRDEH

[4] = biological target: T4, HeLa cell extract proteins (Homo sapiens, UniProt O43776); conditions: protein NARS; HeLa
T4 construct: endogenous in cells; host or cells: HeLa cell extract
T4 sequence (O43776 1-548): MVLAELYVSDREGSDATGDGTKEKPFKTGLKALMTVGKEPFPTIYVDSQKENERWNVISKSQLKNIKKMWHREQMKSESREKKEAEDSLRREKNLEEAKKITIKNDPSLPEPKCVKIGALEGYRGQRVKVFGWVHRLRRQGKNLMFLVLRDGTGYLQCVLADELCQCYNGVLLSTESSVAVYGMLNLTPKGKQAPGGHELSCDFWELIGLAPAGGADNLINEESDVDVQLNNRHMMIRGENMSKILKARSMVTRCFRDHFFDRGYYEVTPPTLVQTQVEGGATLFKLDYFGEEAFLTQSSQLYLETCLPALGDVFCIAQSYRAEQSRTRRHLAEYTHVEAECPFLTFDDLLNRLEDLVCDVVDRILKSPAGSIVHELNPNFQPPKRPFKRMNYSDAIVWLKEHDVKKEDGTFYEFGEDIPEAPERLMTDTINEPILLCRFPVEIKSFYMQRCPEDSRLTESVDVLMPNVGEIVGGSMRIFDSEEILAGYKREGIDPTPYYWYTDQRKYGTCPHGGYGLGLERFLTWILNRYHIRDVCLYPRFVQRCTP

SMILES | fold changes relative to vehicle control ([1]; protein PC, HeLa) | fold changes relative to vehicle control ([2]; HeLa, captured protein SEC24D) | fold changes relative to vehicle control ([3]; protein TLN1, HeLa) | fold changes relative to vehicle control [4] | further results
Nc1nc2c(c(=O)[nH]1)N(C=O)C(CNc1ccc(C(=O)N[C@@H](CCC(=O)O)C(=O)O)cc1)CN2 (stereo partly drawn) [LEU, leucovorin] | 0.8 | 1.12 | 0.67 |  | 
Nc1nc2[nH]cc(CCc3ccc(C(=O)N[C@@H](CCC(=O)O)C(=O)O)cc3)c2c(=O)[nH]1 [PTX, pemetrexed] |  |  |  |  | fold changes relative to vehicle control [1]: 0.69; fold changes relative to vehicle control [2]: 1.09; fold changes relative to vehicle control [3]: 1.01
CCCCCCOc1ccc(Cc2cnc(N)nc2N)cc1 [compound 1] |  |  |  | 1.11 | 
CCCCCCOc1cccc(Cc2cnc(N)nc2N)c1 [compound 2] |  |  |  | 2.06 | 
Nc1nc2cccc(-c3ccccc3)c2n1Cc1ccc(Cl)c(Cl)c1 [compound 3] |  |  |  | 1.28 | 
NCCOCCOCC(=O)Nc1nc2ncc(CNc3ccc(C(=O)NC(CCC(=O)O)C(=O)O)cc3)nc2c(=O)[nH]1 (stereo not drawn) [compound 6] | 0.97 | 1.15 | 0.72 |  | 
NCCCNc1ccc(C(=O)NC(CCC(=O)O)C(=O)O)cc1 (stereo not drawn) [compound 7] | 1.1 | 1.04 | 0.78 |  | 
